Patent publication US20120129884A1, “PHOTOCHEMOTHERAPEUTIC HETEROCYCLIC AGENTS HAVING ANTIPROLIFERATIVE AND ANTINEOPLASTIC ACTIVITY” (UNIVERSITA DEGLI STUDI DI PADOVA, priority 2009, published 2012)

How the values were obtained:
[1] = tested on: T-cell leukaemia (Jurkat); assay: Phototoxicity after UV-A irradiation, MTT test; type: cell-based, human; conditions: mean ± SEM
Protocol: (§1) The evaluation of phototoxic activity was carried out in some human tumour cell lines: T-cell leukaemia (Jurkat), chronic myeloid leukaemia (K-562), colon adenocarcinoma (LoVo) and breast adenocarcinoma (MCF-7). Cellular survival experiments were carried out without irradiation to verify an eventual toxicity of photosensitizer in the dark, and then after two times of irradiation (10 and 15 min of UV-A, which correspond to 2.5 and 3.75 J/cm^2, respectively), using lamps which emit mainly at 365 nm. Cell survival was checked after 72 h of compound incubation or after 72 h from UVA irradiation by Mosmann's MTT reduction test (3-[4,5-dimethyltiazol-2yl] 2,5-diphenyl tetrazolium bromide), (T. Mossman, Rapid colorimetric assay for cellular growth and survival: application to proliferation and cytotoxicity assays, J. Immunol. Meths. 1983, 65, 55-63). […] In Table 2, there are GI50 values, that is the compound concentration required for 50% cell survival, for each cell line and for every time of irradiation.

[2] = tested on: breast adenocarcinoma (MCF-7); assay: Phototoxicity after UV-A irradiation, MTT test; type: cell-based, human; conditions: mean ± SEM
Protocol: as §1

[3] = tested on: chronic myeloid leukaemia (K-562); assay: Phototoxicity after UV-A irradiation, MTT test; type: cell-based, human; conditions: mean ± SEM
Protocol: as §1

[4] = tested on: colon adenocarcinoma (LoVo); assay: Phototoxicity after UV-A irradiation, MTT test; type: cell-based, human; conditions: mean ± SEM
Protocol: as §1

[5] = tested on: human tumour cell lines (Jurkat, K-562, LoVo, MCF-7); assay: Phototoxicity / dark toxicity in all tested human tumour cell lines, MTT test; type: cell-based; conditions: after UVA irradiation
Protocol: as §1

[6] = tested on: Jurkat cells; assay: Mitochondrial membrane potential by JC-1 probe after irradiation; type: cell-based, human; conditions: JC-1, 2 h from irradiation, with respect to control
Protocol: Other two tests were performed to have more information about the mechanism of action and to evaluate which organelles were involved in this process. […] (X. Wang, The expanding role of mitochondria in apoptosis, Gen. Develop. 2001, 15, 2922-2933). An eventual mitochondrial involvement in apoptosis induction was evaluated by such a parameter of mitochondrial dysfunction as the loss of mitochondrial membrane potential. Mitochondrial membrane potential of Jurkat cells was monitored by JC-1 probe after their irradiation in the presence of 9j, 9k and 9m (S. Salvioli, A. Ardizzoni, C. Franceschi, A. Cossarizza, JC-1, but not DiOC6(3) or rhodamine 123, is a reliable fluorescent probe to assess […] changes in intact cells: implications for studies on mitochondrial functionality during apoptosis, FEBS Lett. 1997, 411, 77-82).

[7] = tested on: plasmid (pBR322) DNA; assay: Plasmid strand break / DNA photodamage experiments (Fpg, Endo III); type: biochemical; conditions: pBR322, irradiated, Fpg and Endo III
Protocol: After having assessed a weak affinity toward this macromolecule in the dark by such spectroscopic techniques as linear dichroism and fluorimetric titrations, some plasmid (pBR322) strand break experiments were carried out to check an eventual DNA photodamage by compounds. The formation of open circular or linear DNA from a supercoiled plasmid DNA was monitored by the separation of the three forms using agarose gel horizontal electrophoresis. Beside the formation of frank strand breaks, oxidative damages to purine and pyrimidine bases were also evaluated, incubating the irradiated mixture with the repair enzyme Fpg (Formamidopyrimidine glycosylase) and Endo III (Endonuclase III), respectively. (B. Epe, M. Pflaum, S. Boiteux, DNA damage induced by photosensitizers in cellular and cell-free systems, Mut. Res. 1993, 299, 135-145; T. A. Ciulla, J. R. Van Camp, E. Rosenfeld, I. Kochevar, Photosensitization of single-strand breaks in pBR322 DNA by Rose Bengal, Photochem. Photobiol. 1989, 49, 293-298).

[8] = UV-A 2.5 J/cm^2, 72 h after irradiation
[9] = UV-A 3.75 J/cm^2, 72 h after irradiation
[10] = MCF-7, UV-A 2.5 J/cm^2, 72 h after irradiation
[11] = MCF-7, UV-A 3.75 J/cm^2, 72 h after irradiation
[12] = K-562, UV-A 2.5 J/cm^2, 72 h after irradiation
[13] = K-562, UV-A 3.75 J/cm^2, 72 h after irradiation
[14] = Homo sapiens, light or radiation study, 72 h, UV-A 2.5 J/cm^2, 72 h after irradiation
[15] = Homo sapiens, light or radiation study, 72 h, UV-A 3.75 J/cm^2, 72 h after irradiation
[16] = Homo sapiens, MCF7, light or radiation study, 72 h, MCF-7, UV-A 2.5 J/cm^2, 72 h after irradiation
[17] = Homo sapiens, MCF7, light or radiation study, 72 h, MCF-7, UV-A 3.75 J/cm^2, 72 h after irradiation
[18] = Homo sapiens, K562, light or radiation study, 72 h, K-562, UV-A 2.5 J/cm^2, 72 h after irradiation
[19] = Homo sapiens, K562, light or radiation study, 72 h, K-562, UV-A 3.75 J/cm^2, 72 h after irradiation

Structure (SMILES)	GI50 [1, 8]	GI50 [1, 9]	GI50 [2, 10]	GI50 [2, 11]	GI50 [3, 12]	GI50 [3, 13]	GI50 [4, 8]	GI50 [4, 9]	GI50 [1, 14]	GI50 [1, 15]	GI50 [2, 16]	GI50 [2, 17]	GI50 [3, 18]	GI50 [3, 19]	GI50 [4, 14]	GI50 [4, 15]	GI50 (phototoxic) [5]	cell percentage with collapsed mitochondrial potential [6]	DNA photodamage (photocleavage, oxidative damages in DNA bases) [7]
COc1ccc(Cn2ccc3c2-c2[nH]c(=O)c(S(=O)(=O)c4ccccc4)cc2CC3)cc1 [Compound 9h, 1-(p-Methoxy-benzyl)-7-(phenylsulfonyl)-1,4,5,9-tetrahydro-8H-pyrrolo[3,24]quinolin-8-one]	1600 ± 200 nM	1200 ± 200 nM	4200 ± 700 nM	1800 ± 100 nM	3100 ± 400 nM	2500 ± 200 nM	2800 ± 300 nM	2000 ± 200 nM											
O=c1[nH]c2c(cc1S(=O)(=O)c1ccccc1)CCc1ccn(S(=O)(=O)c3ccccc3)c1-2 [Compound 9a, 1,7-bis(Phenylsulfonyl)-1,4,5,9-tetrahydro-8H-pyrrolo[3,2-h]quinolin-8-one]									> 20000 nM	> 20000 nM	> 20000 nM	> 20000 nM	> 20000 nM	> 20000 nM	> 20000 nM	> 20000 nM			
Cc1ccc(Cn2ccc3c2-c2[nH]c(=O)c(S(=O)(=O)c4ccccc4)cc2CC3)cc1 [Compound 9g, 1-(p-Methyl-benzyl)-7-(phenylsulfonyl)-1,4,5,9-tetrahydro-8H-pyrrolo[3,2-h]quinolin-8-one]									1600 ± 100 nM	1200 ± 200 nM	3800 ± 500 nM	2400 ± 200 nM	2700 ± 200 nM	2400 ± 100 nM	2700 ± 100 nM	2300 ± 200 nM			
CCOC(=O)c1cc2c(n1Cc1ccc(C)cc1)-c1[nH]c(=O)c(S(=O)(=O)c3ccccc3)cc1CC2 [Compound 9l, Ethyl 1-(p-methyl-benzyl)-7-(phenylsulfonyl)-1,4,5,9-tetrahydro-8H-pyrrolo[3,2-h] quinolin-8-one-2-carboxylate]									1500 ± 200 nM	1200 ± 100 nM	1700 ± 300 nM	1500 ± 200 nM	1200 ± 300 nM	1000 ± 100 nM	1600 ± 200 nM	1000 ± 200 nM			
O=c1ccc2ccc3occc3c2o1 [Ang, angelicin, reference compound]									1000 ± 200 nM	900 ± 100 nM	4400 ± 500 nM	1500 ± 200 nM	1200 ± 100 nM	1000 ± 100 nM	3600 ± 400 nM	1500 ± 300 nM			
CCOC(=O)c1cc2c([nH]1)-c1[nH]c(=O)c(S(=O)(=O)c3ccccc3)cc1CC2 [Compound 9i, Ethyl 7-(phenylsulfonyl)-1,4,5,9-tetrahydro-8H-pyrrolo[3,2-h]quinolin-8-one-2-carboxylate]									3500 ± 400 nM	2500 ± 200 nM	6100 ± 200 nM	4300 ± 700 nM	6100 ± 200 nM	5400 ± 600 nM	5500 ± 200 nM	4600 ± 400 nM			
O=c1[nH]c2c(cc1S(=O)(=O)c1ccccc1)CCc1cc[nH]c1-2 [Compound 9b, 7-(Phenylsulfonyl)-1,4,5,9-tetrahydro-8H-pyrrolo[3,2-h]quinolin-8-one]									> 20000 nM	> 20000 nM	> 20000 nM	> 20000 nM	> 20000 nM	> 20000 nM	> 20000 nM	> 20000 nM			
O=c1[nH]c2c(cc1S(=O)(=O)c1ccccc1)CCc1ccn(Cc3ccccc3)c1-2 [Compound 9e, 1-Benzyl-7-(phenylsulfonyl)-1,4,5,9-tetrahydro-8H-pyrrolo[3,2-h]quinolin-8-one]									1300 ± 200 nM	1100 ± 100 nM	4000 ± 600 nM	1700 ± 700 nM	4800 ± 500 nM	3300 ± 500 nM	2600 ± 200 nM	2200 ± 200 nM			
CCOC(=O)c1cc2c(n1Cc1ccc(OC)cc1)-c1[nH]c(=O)c(S(=O)(=O)c3ccccc3)cc1CC2 [Compound 9m, Ethyl 1-(p-methoxy-benzyl)-7-(phenylsulfonyl)-1,4,5,9-tetrahydro-8H-pyrrolo[3,24] quinolin-8-one-2-carboxylate]	800 ± 100 nM	700 ± 100 nM	1600 ± 200 nM	1400 ± 200 nM	1000 ± 100 nM	900 ± 100 nM	1100 ± 100 nM	1000 ± 200 nM									submicromolar	increase of cell percentage with collapsed mitochondrial potential	do not induce DNA photodamage
N#Cc1cc2c([nH]c1=O)-c1c(ccn1S(=O)(=O)c1ccccc1)CC2 [Compound 9c, 1-(Phenylsulfonyl)-1,4,5,9-tetrahydro-8H-pyrrolo[3,2-h]quinolin-7-carbonitrile-8-one]	> 20000 nM	> 20000 nM	> 20000 nM	> 20000 nM	> 20000 nM	> 20000 nM	> 20000 nM	> 20000 nM											
O=c1[nH]c2c(cc1S(=O)(=O)c1ccccc1)CCc1ccn(-c3ccccc3)c1-2 [Compound 9f, 1-Phenyl-7-(phenylsulfonyl)-1,4,5,9-tetrahydro-8H-pyrrolo[3,2-h]quinolin-8-one]									> 20000 nM	> 20000 nM	> 20000 nM	> 20000 nM	> 20000 nM	> 20000 nM	> 20000 nM	> 20000 nM			
CCOC(=O)c1cc2c(n1C)-c1[nH]c(=O)c(S(=O)(=O)c3ccccc3)cc1CC2 [Compound 9j, Ethyl 1-methyl-7-(phenylsulfonyl)-1,4,5,9-tetrahydro-8H-pyrrolo[3,2-h]quinolin-8-one-2-carboxylate]									700 ± 100 nM	500 ± 100 nM	1200 ± 100 nM	1000 ± 100 nM	1000 ± 100 nM	900 ± 100 nM	1100 ± 100 nM	1000 ± 100 nM	submicromolar		do not induce DNA photodamage
Cn1ccc2c1-c1[nH]c(=O)c(S(=O)(=O)c3ccccc3)cc1CC2 [Compound 9d, 1-Methyl-7-(phenylsulfonyl)-1,4,5,9-tetrahydro-8H-pyrrolo[3,2-h]quinolin-8-one]									> 20000 nM	> 20000 nM	> 20000 nM	> 20000 nM	> 20000 nM	> 20000 nM	> 20000 nM	> 20000 nM			
CCOC(=O)c1cc2c(n1Cc1ccccc1)-c1[nH]c(=O)c(S(=O)(=O)c3ccccc3)cc1CC2 [Compound 9k, Ethyl 1-benzyl-7-(phenylsulfonyl)-1,4,5,9-tetrahydro-8H-pyrrolo[3,2-h]quinolin-8-one-2-carboxylate]									800 ± 100 nM	600 ± 100 nM	900 ± 100 nM	800 ± 100 nM	900 ± 100 nM	600 ± 100 nM	900 ± 100 nM	800 ± 100 nM	submicromolar	increase of cell percentage with collapsed mitochondrial potential	do not induce DNA photodamage
